Measured values as given in patent US9120249B2, “Implant device release agents and methods of using same” (ENDO PHARMACEUTICALS SOLUTIONS INC., priority 2007, dated 2015).

Key:
[1] = Tensile strength of gamma irradiated cartridges, initially and after storage at 37° C.; assay type: physicochemical; settings: initially after irradiation and after 3 and 8 months storage at 37° C.
Experimental: Approximately 15-20 cartridges of each formulation were prepared and gamma irradiated at 10-11 kGy. The tensile strength of five cartridges from each formulation was measured initially. The remaining cartridges were stored at 37° C. and tested for tensile strength again at 3 and 8 months.

[2] = cited from earlier work; for CMC: critical micelle concentration; for HLB: hydrophilic-lipophilic balance

O=C1O[C@H]([C@@H](O)CO)C(O)=C1O [Ascorbic acid, ascorbic acid]
tensile strength of cartridges, in words [1]: seems to be effective as well

Triton X-100
CMC [2]: 0.2 to 0.9 mM
HLB [2]: 13.5

Sucrose monolaurate
CMC [2]: 0.2 mM
HLB [2]: ~8

CCCCCCCC/C=C\CCCCCCCC(=O)OCCOCC(OCCO)C1OCC(OCCO)C1OCCO (stereo not shown) [Tween 80]
CMC [2]: 0.012 mM
HLB [2]: 15
